# According to PubChem BioAssay (NCI):
#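 Cells were grown in 96-well plates and exposed to each compound for 48 hours at five concentrations; endpoints were interpolated linearly between bracketing concentrations, or set to the highest concentration if not reached. Abbreviation: GI50, concentration required for 50% inhibition of growth. TGI: total growth inhibition.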
# Columns and labels:
# Assay in all cases: DTP human tumour cell line panel, 48 h
# [1] = tested on: SF-295 CNS
# [2] = tested on: HOP-92 NSCLC
# [3] = tested on: KM12 colon
# [4] = tested on: 786-0 renal
# [5] = tested on: ACHN renal
# [6] = tested on: SK-MEL-28 melanoma
# [7] = tested on: COLO 205 colon
# [8] = tested on: UACC-62 melanoma
# [9] = tested on: SF-268 CNS
# [10] = tested on: HL-60(TB) leukemia
# [11] = tested on: SF-539 CNS
# [12] = tested on: U251 CNS
# [13] = tested on: NCI/ADR-RES ovarian
# [14] = tested on: OVCAR-5 ovarian
# [15] = tested on: HOP-62 NSCLC
# [16] = tested on: HS 578T breast
# [17] = tested on: CAKI-1 renal
# [18] = tested on: A549 NSCLC
# [19] = tested on: MCF7 breast
# [20] = tested on: NCI-H226 lung
# [21] = tested on: NCI-H522 lung
# [22] = tested on: RXF 393 renal
# [23] = tested on: TK-10 renal
# [24] = tested on: NCI-H460 lung
# [25] = tested on: MDA-MB-231 breast
# [26] = tested on: BT-549 breast
# [27] = tested on: LOX IMVI melanoma
# [28] = tested on: K-562 leukemia
# [29] = tested on: DU-145 prostate
# [30] = tested on: MDA-MB-435
# [31] = tested on: SK-MEL-5 melanoma
# [32] = tested on: EKVX NSCLC
# [33] = tested on: MALME-3M melanoma
# [34] = tested on: UACC-257 melanoma
# [35] = tested on: SNB-75 CNS
# [36] = tested on: SN12C renal
# [37] = tested on: OVCAR-8 ovarian
# [38] = tested on: NCI-H23 lung
# [39] = tested on: SR leukemia
# [40] = tested on: HT29 colon
# [41] = tested on: SW-620 colon
# [42] = tested on: PC-3 prostate
# [43] = tested on: SK-MEL-2 melanoma
# [44] = tested on: HCT-15 colon
# [45] = tested on: OVCAR-4 ovarian
# [46] = tested on: SNB-19 CNS
# [47] = tested on: T-47D breast
# [48] = tested on: IGROV1 ovarian
# [49] = tested on: HCT-116 colon
# [50] = tested on: UO-31 renal
# [51] = tested on: SK-OV-3 ovarian
# [52] = tested on: OVCAR-3 ovarian
# [53] = tested on: CCRF-CEM leukemia
# [54] = tested on: M14 melanoma
# [55] = tested on: MOLT-4 leukemia
# [56] = tested on: A498 renal
# [57] = tested on: RPMI-8226 leukemia
# [58] = tested on: HCC-2998 colon
smiles,measurement,setting,value
O=C1c2ccc3ccccc3c2CCC1N1CCCCC1 (centres undefined),TGI,[1],37.9 µM
same,TGI,[2],32.2 µM
same,TGI,[3],31.6 µM
same,TGI,[4],32.1 µM
same,TGI,[5],31.5 µM
same,TGI,[6],33.1 µM
same,TGI,[7],42.1 µM
same,TGI,[8],30.3 µM
same,TGI,[9],39.7 µM
same,TGI,[10],49.6 µM
same,TGI,[11],28.8 µM
same,TGI,[12],33.1 µM
same,TGI,[13],46.3 µM
same,TGI,[14],37.9 µM
same,TGI,[15],34 µM
same,TGI,[16],44.9 µM
same,TGI,[17],29.5 µM
same,TGI,[18],36.3 µM
same,TGI,[19],> 100 µM
same,TGI,[20],31.4 µM
same,TGI,[21],35.7 µM
same,TGI,[22],46.5 µM
same,TGI,[23],29.6 µM
same,TGI,[24],50.4 µM
same,TGI,[25],30.6 µM
same,TGI,[26],74.7 µM
same,TGI,[27],33.7 µM
same,TGI,[28],35 µM
same,TGI,[29],30.3 µM
same,TGI,[30],32.3 µM
same,TGI,[31],30.7 µM
same,TGI,[32],51.7 µM
same,TGI,[33],31.4 µM
same,TGI,[34],35 µM
same,TGI,[35],34.3 µM
same,TGI,[36],29 µM
same,TGI,[37],37.3 µM
same,TGI,[38],40.2 µM
same,TGI,[39],36.6 µM
same,TGI,[40],39 µM
same,TGI,[41],34.5 µM
same,TGI,[42],42.3 µM
same,TGI,[43],44.4 µM
same,TGI,[44],37.4 µM
same,TGI,[45],30.2 µM
same,TGI,[46],40.8 µM
same,TGI,[47],54.3 µM
same,TGI,[48],29.5 µM
same,TGI,[49],31.7 µM
same,TGI,[50],29.1 µM
same,TGI,[51],54.4 µM
same,TGI,[52],28.8 µM
O=CNc1ccc2c(c1)Cc1cc([N+](=O)[O-])ccc1-2,GI50,[1],0.981 µM
same,TGI,[1],> 100 µM
same,GI50,[2],6.97 µM
same,TGI,[2],> 100 µM
same,GI50,[3],0.715 µM
same,TGI,[3],> 100 µM
same,GI50,[4],5.32 µM
same,TGI,[4],> 100 µM
same,GI50,[5],6.52 µM
same,TGI,[5],> 100 µM
same,GI50,[6],> 22.3 µM
same,TGI,[6],> 100 µM
same,GI50,[53],1.31 µM
same,TGI,[53],> 100 µM
same,GI50,[7],2.87 µM
same,TGI,[7],> 100 µM
same,GI50,[8],4.3 µM
same,TGI,[8],> 100 µM
same,GI50,[9],5.02 µM
same,TGI,[9],> 100 µM
same,GI50,[10],3.21 µM
same,TGI,[10],> 100 µM
same,GI50,[11],4.14 µM
same,TGI,[11],> 100 µM
same,GI50,[12],2.97 µM
same,TGI,[12],> 100 µM
same,GI50,[13],2.77 µM
same,TGI,[13],> 100 µM
same,GI50,[54],0.291 µM
same,TGI,[54],> 100 µM
same,GI50,[14],4.2 µM
same,TGI,[14],> 100 µM
same,GI50,[15],8.71 µM
same,TGI,[15],> 100 µM
same,GI50,[16],1.23 µM
same,TGI,[16],5.16 µM
same,GI50,[17],3.29 µM
same,TGI,[17],> 100 µM
same,GI50,[18],5.75 µM
same,TGI,[18],> 77.4 µM
same,GI50,[19],0.561 µM
same,TGI,[19],> 100 µM
same,GI50,[20],27.7 µM
same,TGI,[20],> 100 µM
same,GI50,[21],1.85 µM
same,TGI,[21],7.56 µM
same,GI50,[22],2.33 µM
same,TGI,[22],> 100 µM
same,GI50,[23],10.2 µM
same,TGI,[23],> 100 µM
same,GI50,[24],2.78 µM
same,TGI,[24],> 60.3 µM
same,GI50,[25],4.11 µM
same,TGI,[25],> 100 µM
same,GI50,[55],2.78 µM
same,TGI,[55],> 53.1 µM
same,GI50,[26],2.93 µM
same,TGI,[26],> 100 µM
same,GI50,[27],2.62 µM
same,TGI,[27],98.5 µM
same,GI50,[29],2.83 µM
same,TGI,[29],> 100 µM
same,GI50,[31],1.53 µM
same,TGI,[31],> 100 µM
same,GI50,[56],2.02 µM
same,TGI,[56],> 58.1 µM
same,GI50,[32],0.657 µM
same,TGI,[32],> 100 µM
same,GI50,[33],5.97 µM
same,TGI,[33],> 100 µM
same,GI50,[34],5.39 µM
same,TGI,[34],> 100 µM
same,GI50,[35],3.02 µM
same,TGI,[35],> 59.5 µM
same,GI50,[36],> 26.2 µM
same,TGI,[36],> 100 µM
same,GI50,[37],4.99 µM
same,TGI,[37],> 100 µM
same,GI50,[57],> 100 µM
same,TGI,[57],> 100 µM
same,GI50,[58],1.3 µM
same,TGI,[58],> 100 µM
same,GI50,[38],4.61 µM
same,TGI,[38],> 100 µM
same,GI50,[39],2.17 µM
same,TGI,[39],> 100 µM
same,GI50,[40],4.5 µM
same,TGI,[40],> 100 µM
same,GI50,[41],2.05 µM
same,TGI,[41],> 100 µM
same,GI50,[42],4.87 µM
same,TGI,[42],> 100 µM
same,GI50,[43],3.58 µM
same,TGI,[43],> 100 µM
same,GI50,[44],2.86 µM
same,TGI,[44],> 100 µM
same,GI50,[45],> 65.5 µM
same,TGI,[45],> 100 µM
same,GI50,[46],5.63 µM
same,TGI,[46],> 100 µM
same,GI50,[47],> 100 µM
same,TGI,[47],> 100 µM
same,GI50,[48],3.95 µM
same,TGI,[48],> 100 µM
same,GI50,[49],1.38 µM
same,TGI,[49],> 100 µM
same,GI50,[50],3.38 µM
same,TGI,[50],> 100 µM
same,GI50,[51],4.39 µM
same,TGI,[51],27.4 µM
same,GI50,[52],1.56 µM
same,TGI,[52],> 100 µM
